Results taken from patent US20080280937A1, “Ligand Conjugates of Vinca Alkaloids, Analogs, and Derivatives” (priority 2005, published 2008).
pIC50: −log10 of the molar value. Entries after “also recorded” stand apart in the source; their conditions may differ.

What was measured:
[1] = Animal Weight Determination
Description: Animal Weight Determination. The percentage weight change of the mice was determined in mice (5 mice/group) on the indicated days post-tumor inoculation (PTI) as shown in the graph for the samples described in the related tumor volume assay.

[2] = system: folate receptor-positive KB cells; assay type: cell-based, human
Description: Inhibition of Cellular DNA Synthesis. The compounds described herein were evaluated using an in vitro cytotoxicity assay that predicts the ability of the drug to inhibit the growth of folate receptor-positive KB cells. The compounds were comprised of folate linked to a respective chemotherapeutic drug, as prepared according to the protocols described herein. The KB cells were exposed for predetermined periods of time at 37° C. to the indicated concentrations of folate-drug conjugate in the absence or presence of at least a 100-fold excess of folic acid. The cells were then rinsed with fresh culture medium and incubated in fresh culture medium for 72 hours at 37° C. Cell viability was assessed using a ^3H-thymidine incorporation assay.

[3] = system: M109 tumors; assay: Inhibition of Tumor Growth in Mice, subcutaneous M109 tumors; assay type: in vivo; settings: Balb/c mice
Description: Inhibition of Tumor Growth in Mice. The anti-tumor activity of the compounds described herein, when administered intravenously (i.v.) to tumor-bearing animals, was evaluated in Balb/c mice bearing subcutaneous M109 tumors. Approximately 11 days post tumor inoculation in the subcutis of the right axilla with 1×10^6 M109 cells (tumor volume range at t0=between 60 and 80 mm^3), mice (5/group) were injected i.v. three times a week (TIW), for a defined length of time (e.g., 2-3 weeks) with (a) a defined dose level on a per kilogram body weight basis of a drug delivery conjugate described herein, or (b) an equivalent dose volume of PBS (control). Tumor growth was measured using calipers at 2-day or 3-day intervals in each treatment group. Tumor volumes were calculated using the equation V=a×b^2/2, where “a” is the length of the tumor and “b” is the width expressed in millimeters.

[4] = molecular target: T1, folate receptors (FRs) (Homo sapiens, UniProt P15328); assay: Relative Affinity Assay (displacement of 3H-folic acid on FR-positive KB cells); assay type: binding
T1 construct: FR-positive KB cells were heavily seeded into 24-well cell culture plates; endogenous in cells; host or cells: KB cells
Description: Relative Affinity Assay. The affinity of the compounds described herein for folate receptors (FRs) relative to folate was determined according to a previously described method (Westerhof, G. R., J. H. Schornagel, et al. (1995) Mol. Pharm. 48: 459-471) with slight modification. Briefly, FR-positive KB cells were heavily seeded into 24-well cell culture plates and allowed to adhere to the plastic for 18 h. Spent incubation media was replaced in designated wells with folate-free RPMI (FFRPMI) supplemented with 100 nM ^3H-folic acid in the absence and presence of increasing concentrations of test article or folic acid. Cells were incubated for 60 min at 37° C. and then rinsed 3 times with PBS, pH 7.4, followed by the addition of 500 μL of 1% SDS in PBS, pH 7.4. Cell lysates were then collected and added to individual vials containing 5 mL of scintillation cocktail, and then counted for radioactivity. Negative control tubes contained only the ^3H-folic acid in FFRPMI (no competitor). Positive control tubes contained a final concentration of 1 mM folic acid, and CPMs measured in these samples (representing non-specific binding of label) were subtracted from all samples.

[5] = system: Folate receptor-negative 4T-1 tumor cells; assay: 4T-1 Tumor Volume Assay; assay type: in vivo, Balb/c mice; settings: 3 μmol/kg TIW for 3 weeks
Description: 4T-1 Tumor Volume Assay. Six to seven week-old mice (female Balb/c strain) were obtained from Harlan, Inc., Indianapolis, Ind. The mice were maintained on Harlan's folate-free chow for a total of three weeks prior to the onset of and during this experiment. Folate receptor-negative 4T-1 tumor cells (1×10^6 cells per animal) were inoculated in the subcutis of the right axilla. Approximately 5 days post tumor inoculation when the 4T-1 tumor average volume was ˜100 mm^3, mice (5/group) were injected i.v. three times a week (TIW), for 3 weeks with 3 μmol/kg of drug delivery conjugate or with an equivalent dose volume of PBS (control). Tumor growth was measured using calipers at 2-day or 3-day intervals in each treatment group. Tumor volumes were calculated using the equation V=a×b^2/2, where “a” is the length of the tumor and “b” is the width expressed in millimeters.

T1 sequence (P15328 25-234): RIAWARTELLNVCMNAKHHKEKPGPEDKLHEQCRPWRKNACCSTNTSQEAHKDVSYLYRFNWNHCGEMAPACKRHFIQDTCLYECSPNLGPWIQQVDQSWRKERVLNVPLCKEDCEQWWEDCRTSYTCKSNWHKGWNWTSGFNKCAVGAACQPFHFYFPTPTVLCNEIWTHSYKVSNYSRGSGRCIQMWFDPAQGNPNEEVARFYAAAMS

CC[C@]1(O)C[C@H]2CN(CCc3c([nH]c4ccccc34)[C@@](C(=O)OC)(c3cc4c(cc3OC)N(C)[C@H]3[C@@](O)(C(=O)NN=CCOCCOCCN5C(=O)CC(SC[C@H](NC(=O)[C@H](CC(=O)O)NC(=O)[C@H](CC(=O)O)NC(=O)[C@H](CCCNC(=N)N)NC(=O)[C@H](CC(=O)O)NC(=O)CC[C@H](NC(=O)c6ccc(NCc7cnc8nc(N)[nH]c(=O)c8n7)cc6)C(=O)O)C(=O)O)C5=O)[C@H](O)[C@]5(CC)C=CCN6CC[C@]43[C@@H]65)C2)C1 (some centres unmarked) [Example 6]
weight of nu/nu mice ([1]; 5 μmol/kg for 3 weeks (FIG. 16B)): absence of an effect
weight of nu/nu mice ([1]; 10 μmol/kg TIW for 3 weeks (FIG. 5B)): does not affect the weight of the mice; also recorded: absence of an effect
weight of mice ([1]; 10 μmol/kg TIW for 3 weeks (FIG. 7B)): absence of an effect
weight of Balb/c mice ([1]; 10 μmol/kg for 3 weeks (FIG. 14B)): absence of an effect
weight of nu/nu mice ([1]; 1, 5, and 10 μmol/kg TIW for 3 weeks (FIG. 6B)): little effect on the weight of the mice; also recorded: absence of an effect
pIC50 ([2]; KB cells, without excess folic acid, read-out: IC50, 3H-thymidine incorporation in KB cells): 7.85
Folate Receptor Competition ([2]; summary table): Yes
competition by excess folic acid of effect on 3H-thymidine incorporation ([2]; with versus without at least 100-fold excess of folic acid): folate competes
growth of M109 tumors ([3]; 1.5 μmol/kg TIW): inhibits the growth of solid tumors
growth of M109 tumors ([3]; 3 μmol/kg TIW for 3 weeks): inhibits the growth of solid M109 tumors
growth of M109 tumors ([3]; 10 μmol/kg TIW for 3 weeks): inhibits the growth of solid tumors
relative binding affinity versus folic acid at folic acid receptors ([4]; figure legends, folic acid = 1.0, 1 hour at 37° C): 0.35
Relative Folate Receptor Affinity ([4]; summary table): 0.31
growth of FR-negative 4T-1 tumors [5]: not folate receptor (FR)-negative tumors; also recorded: absence of activity
